Values of other authors in patent US9163009B2, “Salts of raltegravir” (priority 2011, dated 2015).

What was measured:
[1] = water
[2] = in vivo

Compound	aqueous solubility [1]	bioavailability over raltegravir [2]
Cc1nnc(C(=O)NC(C)(C)c2nc(C(=O)NCc3ccc(F)cc3)c(O)c(=O)n2C)o1 [Raltegravir, N-(4-fluorobenzyl)-5-hydroxy-1-methyl-2-(1-methyl-1-{[(5-methyl-1,3,4-oxadiazol-2-yl)carbonyl]amino}ethyl)-6-oxo-1,6-dihydropyrimidine-4-carboxamide]	poor	
Cc1nnc(C(=O)NC(C)(C)c2nc(C(=O)NCc3ccc(F)cc3)c([O-])c(=O)n2C)o1.[K+] [potassium salt of raltegravir]	significantly more soluble	
Cc1nnc(C(=O)NC(C)(C)c2nc(C(=O)NCc3ccc(F)cc3)c([O-])c(=O)n2C)o1.[K+] [Form 1]		superior bioavailability
